Measured values published in the NIST ThermoML archive (doi:10.1016/j.jct.2005.01.004).
± gives the expanded uncertainty stated by the source.

Experiments:
[1] = 298.15 K; 101.33 kPa; Liquid
[2] = refractive index (Na D-line) (dimensionless); conditions: 298.15 K; 101.33 kPa; Liquid; Standard Abbe refractometry

- mass density [1]: 786.63 ± 0.61 kg/m3
- refractive index [2]: 1.3264 ± 0.0007
SMILES: CO [methanol]
